One may read the IC50 as the concentration needed to halve the response being measured.

Here are results for one molecule from article PMC7476666 (Journal of the American Chemical Society, 2016).

Each structure is given as a SMILES string.

One assay has as its target T1, EphB3 WT (Homo sapiens, UniProt P54753).
T1 sequence (P54753 34-998): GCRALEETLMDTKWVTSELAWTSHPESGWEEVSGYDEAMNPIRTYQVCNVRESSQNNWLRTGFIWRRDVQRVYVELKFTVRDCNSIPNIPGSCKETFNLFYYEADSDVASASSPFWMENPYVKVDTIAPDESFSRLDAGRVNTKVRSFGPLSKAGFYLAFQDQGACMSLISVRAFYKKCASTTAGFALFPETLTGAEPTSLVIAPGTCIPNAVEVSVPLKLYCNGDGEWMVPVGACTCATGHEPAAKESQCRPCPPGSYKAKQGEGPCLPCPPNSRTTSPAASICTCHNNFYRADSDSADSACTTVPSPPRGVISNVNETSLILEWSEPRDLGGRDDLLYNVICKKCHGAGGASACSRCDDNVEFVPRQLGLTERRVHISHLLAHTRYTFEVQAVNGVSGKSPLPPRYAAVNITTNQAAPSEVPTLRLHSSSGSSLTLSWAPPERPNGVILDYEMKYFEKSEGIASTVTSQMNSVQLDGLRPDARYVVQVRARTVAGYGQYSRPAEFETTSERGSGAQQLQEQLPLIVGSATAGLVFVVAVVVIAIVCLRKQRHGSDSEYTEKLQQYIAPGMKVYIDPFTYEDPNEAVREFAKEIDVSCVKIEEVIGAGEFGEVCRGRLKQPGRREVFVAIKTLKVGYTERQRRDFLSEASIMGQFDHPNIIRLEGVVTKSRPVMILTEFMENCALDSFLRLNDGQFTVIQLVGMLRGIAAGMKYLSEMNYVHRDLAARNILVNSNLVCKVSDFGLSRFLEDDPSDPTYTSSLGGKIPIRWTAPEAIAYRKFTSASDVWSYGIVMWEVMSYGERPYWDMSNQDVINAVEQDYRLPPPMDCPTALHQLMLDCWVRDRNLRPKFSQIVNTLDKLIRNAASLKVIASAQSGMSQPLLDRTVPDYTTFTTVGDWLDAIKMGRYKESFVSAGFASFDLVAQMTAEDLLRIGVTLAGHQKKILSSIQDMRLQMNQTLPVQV
Briefly: EphB3 autophosphorylation in transfected HEK293 cells. Particulars: read-out: IC50, EphB3 autophosphorylation in cells. Type of assay: cell-based.

Assay [1] deals with T2, EphB3 (Homo sapiens, UniProt P54753).
T2 sequence (P54753 34-998): T1 sequence (P54753 34-998)
Briefly: Competition with probe 10 for EphB3 labeling in cell lysate. Type of assay: binding.

Assay [2] concerns the target T2, EphB3. The assay is described as follows: Competition / pulse-chase with probe 10 for EphB3 occupancy in HEK293 cells.

`Cc1ccc(C(=O)Nc2cccc(C(F)(F)F)c2)cc1Nc1nc(-c2cccnc2)nc2c1cnn2C` [BHG-712]: the IC50 at EphB3 WT stood at 320 nM; at EphB3 [2] (read-out: IC50 for probe labeling of EphB3, competition with 10 (10 nM) in cells) it was 260 nM. Moreover, on EphB3 [1], the “time to engage EphB3 (preincubation required to compete off labeling by 10)” value is “over 10 min”. Moreover, the “time to engage EphB3 (preincubation required to block labeling by 10)” value at EphB3 [2] (live cells) is listed as “over 10 min”.
